Data published in patent publication US6440453B1, “Transdermal systems for release of 5-HT3 receptor antagonists and their use in anti-emetic treatment” (Novosis Pharma AG, priority 1999, dated 2002).
Where a name gives a salt, the structure may show the parent alone. Read-outs that look alike come from different tables or passages of the source. Values belong to the compound of their own block, whether it stands above or below them.

Key:
[1] = healthy test persons, single dose 0.15 mg/kg i.v., cited from earlier work
nausea and emesis = conditions: cited from earlier work
[2] = after oral administration; cited from earlier work
[3] = humans; cited from earlier work
[4] = diffusion cell, cited from earlier work
[5] = cited from earlier work
[6] = in vitro skin permeation through the skin of a nude mouse
Excerpt: All employed solutions are saturated.
The given values are average values which were obtained with saturated solutions.
Saturated solutions were used to achieve the respective maximal thermodynamic activities.

SMILES: Cc1nccn1CC1CCc2c(c3ccccc3n2C)C1=O (racemic) [ondansetron, (±)-1,2,3,9-tetrahydro-9-methy-3-[(2-methyl-1H-imidazole-1-yl)methyl]-4H-carbazol-4-one monohydrochloride]
average half-life ([1]; age group 19-40 years): 3.5 h | peak concentration in plasma ([1]; age group 19-40 years): 102 ng/mL | plasma clearance ([1]; age group 19-40 years): 0.38 L/h/kg | average half-life ([1]; age group 61-74 years): 4.7 h | plasma clearance ([1]; age group 61-74 years): 0.32 L/h/kg | average half-life ([1]; age group ≧75 years): 5.5 h | plasma clearance ([1]; age group ≧75 years): 0.26 L/h/kg | treatment of nausea and emesis (nausea and emesis; patients treated with anti-tumor drugs such as cisplatin derivatives): reliable in treating nausea and emesis | side effects (nausea and emesis; patients): headaches, diarrhea, and temporary abnormalities in liver function tests | bioavailability [2]: approximately 50% | part of a radioactively marked dose found in urine [3]: approximately 5%

SMILES: Cc1cccc(CN2CCN(C)C[C@@H](NC(=O)c3n[nH]c4ccccc34)C2)c1.Cl.Cl [(R)-(−)-N-(1-methyl-4-(3-methylbenzyl)hexahydro-1H-1,4-diazepin-6-yl)-1H-indazole-3-carboxamided.2HCl]
flow of the active agent through the human epidermis ([4]; adhesive matrix of styrene-butadiene copolymer used as a comparison): 0.8 μg/cm^2/h | flow of the active agent through the human epidermis ([4]; two-phase matrix with 4 % active agent, calcium silicate, dimethyl siloxane adhesive (WO 9407468)): 17.1 μg/cm^2/h

amount permeated relative to a saturated aqueous solution ([6]; mixture of ethanol, tea tree oil and water vs saturated aqueous solution, after 24 hours): approximately 12 times | permeation through the skin (FIG. 1) ([6]; saturated solution in ethanol): best permeation | permeation through the skin (FIG. 1) ([6]; saturated solution in tea tree oil alone): insufficient permeation | amount permeated ([6]; solution in a mixture of ethanol, tea tree oil and water, after 24 hours): approximately 1.2 mg per cm^2 | flow of the active agent (FIG. 2) ([6]; solution in a mixture of ethanol, tea tree oil and water, first 4 to 5 hours): extremely strong increase
SMILES: Cc1nccn1CC1CCc2c(c3ccccc3n2C)C1=O (centres unmarked) [ondansetron hydrochloride]
time until peak concentrations are present in the plasma ([5]; after oral administration): Approximately 1 hour | average elimination half-life ([5]; healthy test persons): 3.5 h | average elimination half-life ([5]; older patients): approximately 7.9 hours | permeation compared with the free base ([6]; in combination with the described solvent mixture): permeates better than ondansetron in the form of the free, non-ionic base | permeation through the skin (FIG. 2) ([6]; saturated aqueous solution): the results do not differ from those which were obtained using pure tea tree oil
